This passage reports TGI results from PubChem BioAssay (NCI).

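Following 48 hours of exposure in 96-well plates, responses at five concentrations were used to interpolate endpoints linearly. The concentration for full growth arrest is given as TGI.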

Test systems include DLD-1 colon; HOP-18 NSCLC; XF 498 CNS; DMS 114 small cell lung; KM20L2 colon; M19-MEL melanoma; DMS 273 small cell lung.
Test in all cases: DTP human tumour cell line panel, 48 h

In general, TGI refers to the concentration at which net growth stops. For `Cc1cc2c(=O)cc(-c3ccc(Cl)cc3Cl)oc2c(C(=O)O)c1C`, the TGI in the test on DLD-1 colon, with HOP-18 NSCLC, with XF 498 CNS, in the test with DMS 114 small cell lung and in the test on KM20L2 colon was more than 100 µM each time.
Turning to `CC(=O)OC1C(COC(N)=O)OC(n2c(-c3ccc(C)cc3)cc(-c3ccccc3)c(C#N)c2=O)C(OC(C)=O)C1OC(C)=O` (stereo not given), the concentration for total growth inhibition (TGI) in the test with DLD-1 colon, in the test with HOP-18 NSCLC, in the test with M19-MEL melanoma, in the test on DMS 273 small cell lung and in the test with KM20L2 colon was more than 100 µM in each case.
On to `CCC(CO)COC(=O)/C=C/C(=O)OCC(CC)CO` (stereo not given), for which the concentration for total growth inhibition (TGI) in the test with DLD-1 colon, with HOP-18 NSCLC, with M19-MEL melanoma, in the test on XF 498 CNS, with DMS 273 small cell lung and with DMS 114 small cell lung was more than 100 µM each time. This molecule also had a concentration for total growth inhibition (TGI) in the test with KM20L2 colon of more than 100 µM.
For `CCOc1ccc(N=C2NC(=O)C(CC(=O)Nc3ccc(Cl)cc3Cl)S2)cc1` (stereo not given), the total growth inhibition concentration (TGI) in the test with DLD-1 colon, with M19-MEL melanoma, in the test on XF 498 CNS, in the test with DMS 273 small cell lung, in the test with DMS 114 small cell lung and in the test on KM20L2 colon was more than 100 µM each time.
Turning to `C=CCC1=C2CCCCC2CCC1=O` (stereo not given), the total growth inhibition concentration (TGI) in the test with DLD-1 colon, in the test on M19-MEL melanoma, in the test on XF 498 CNS, with DMS 273 small cell lung and with DMS 114 small cell lung was more than 100 µM in each case.
Turning to `Nc1c2ccccc2nc2nccnc12`, the TGI in the test on DLD-1 colon, with HOP-18 NSCLC, in the test on M19-MEL melanoma, in the test with XF 498 CNS, with DMS 273 small cell lung and in the test with DMS 114 small cell lung was more than 100 µM in each case. The same molecule yielded a concentration for total growth inhibition (TGI) in the test with KM20L2 colon of more than 100 µM.
Take `Cn1cnc([N+](=O)[O-])c1Sc1nccn1-c1ccccc1`: the TGI is more than 100 µM in the test on DLD-1 colon; 54.3 µM in the test with HOP-18 NSCLC; more than 100 µM in the test on M19-MEL melanoma; more than 100 µM in the test with XF 498 CNS; more than 100 µM in the test on DMS 273 small cell lung; 91.2 µM in the test on DMS 114 small cell lung. The TGI in the test on KM20L2 colon was more than 100 µM.
`CC1OC(n2ccc3ccc([N+](=O)[O-])cc32)C(O)C(O)C1O` (stereo not given): the TGI in the test on DLD-1 colon, in the test on M19-MEL melanoma, with XF 498 CNS, with DMS 273 small cell lung, in the test with DMS 114 small cell lung and in the test with KM20L2 colon was more than 100 µM in each case.
As to `COc1ccc(/C=C2\C(=O)Nc3ccccc32)cc1OC`, the TGI with HOP-18 NSCLC, with XF 498 CNS, in the test on DMS 273 small cell lung and in the test on KM20L2 colon was more than 100 µM in each case.
As for `Cc1cc2c(=O)cc(-c3ccc(Cl)c(Cl)c3)oc2c(C(=O)O)c1C`, the concentration for total growth inhibition (TGI) in the test with DLD-1 colon, with HOP-18 NSCLC, in the test with M19-MEL melanoma, with XF 498 CNS, in the test with DMS 114 small cell lung and in the test with KM20L2 colon was more than 100 µM throughout.
`OCC(O)COc1ccc(F)cc1` (stereo not given): the total growth inhibition concentration (TGI) in the test with DLD-1 colon, with HOP-18 NSCLC, with M19-MEL melanoma, with XF 498 CNS, in the test with DMS 273 small cell lung and in the test on DMS 114 small cell lung was more than 100 µM in each case. The TGI in the test with KM20L2 colon is more than 100 µM.
For the molecule `CCOC(=O)c1sc(Nc2cc(Cl)ccc2Cl)nc1C`, the TGI with DLD-1 colon, with HOP-18 NSCLC, in the test with M19-MEL melanoma, in the test on XF 498 CNS, in the test on DMS 114 small cell lung and in the test on KM20L2 colon was more than 100 µM each time.
Take `CN1C(=O)CNS1(=O)=O`: the concentration for total growth inhibition (TGI) with DLD-1 colon, with XF 498 CNS, in the test on DMS 273 small cell lung and in the test on DMS 114 small cell lung was more than 100 µM in each case.
Regarding `COC(=O)c1oc([N+](=O)[O-])c(-c2ccccc2)c1-c1ccccc1`, the TGI in the test with DLD-1 colon, in the test with HOP-18 NSCLC, in the test with M19-MEL melanoma, in the test with XF 498 CNS, in the test with DMS 273 small cell lung and in the test with DMS 114 small cell lung was more than 100 µM each time. The TGI in the test on KM20L2 colon was more than 100 µM.
For the molecule `c1ccc2c(CNCCCN3CCN(CCCNCc4cccc5ccccc45)CC3)cccc2c1`, the TGI turned out to be 3.69 µM in the test with DLD-1 colon; 18.7 µM in the test on HOP-18 NSCLC; 3.37 µM in the test on M19-MEL melanoma; 3.17 µM with XF 498 CNS; 3.43 µM in the test with DMS 273 small cell lung; 3.46 µM in the test on DMS 114 small cell lung. In the test with KM20L2 colon, this molecule displayed a TGI of 3.18 µM.
As to `NC(=S)N/N=C/c1cn(CCCl)c2ccccc12`, the TGI in the test on DLD-1 colon, in the test on HOP-18 NSCLC, in the test on M19-MEL melanoma and in the test on DMS 114 small cell lung was more than 100 µM throughout.
Regarding `CCCCN(CCCC)C(=O)C(=O)C(C(=O)C(=O)OC)c1nc2ccccc2o1` (stereo not given), the TGI in the test with DLD-1 colon, in the test on HOP-18 NSCLC, in the test with M19-MEL melanoma, in the test with XF 498 CNS, with DMS 273 small cell lung and with DMS 114 small cell lung was more than 100 µM in each case.
Turning to `O=C(CSc1nc(-c2ccccc2)c(-c2ccccc2)[nH]1)N/N=C/c1ccc([N+](=O)[O-])cc1`, the TGI was found to be 38.5 µM with DLD-1 colon; 30.8 µM in the test on M19-MEL melanoma; 28 µM in the test on XF 498 CNS; 27.9 µM with DMS 273 small cell lung; 55.8 µM in the test with DMS 114 small cell lung; 23.2 µM with KM20L2 colon.
As for `CNC(=O)N(CCCC(NC(C)=O)C(=O)NCc1ccccc1)Cc1ccccc1` (stereo not given), the TGI in the test on DLD-1 colon, in the test on M19-MEL melanoma, in the test on XF 498 CNS, in the test with DMS 273 small cell lung, with DMS 114 small cell lung and with KM20L2 colon was more than 100 µM each time.
As to `Cc1ccccc1C(C#N)/C(=N/NC(N)=S)C(=O)Nc1c(C)cccc1C` (stereo not given), the TGI in the test on DLD-1 colon, in the test with HOP-18 NSCLC, with M19-MEL melanoma, in the test on XF 498 CNS, in the test on DMS 114 small cell lung and in the test on KM20L2 colon was more than 100 µM throughout.
`N#CCC(=O)N/N=C(/C(=O)Nc1ccccc1)C1C(=O)N(c2ccccc2)N=C1N` (stereo not given): the TGI in the test with DLD-1 colon, in the test with HOP-18 NSCLC, in the test on M19-MEL melanoma, with XF 498 CNS, in the test on DMS 273 small cell lung and with DMS 114 small cell lung was more than 100 µM in each case. In the test with KM20L2 colon, this molecule came in with a total growth inhibition concentration (TGI) of more than 100 µM.
On to `COC1OC(CO)C(O)C(NC(=O)N(C)N=O)C1O` (stereo not given), for which the total growth inhibition concentration (TGI) in the test with DLD-1 colon, in the test on HOP-18 NSCLC, in the test with M19-MEL melanoma, with XF 498 CNS, in the test on DMS 273 small cell lung and in the test with DMS 114 small cell lung was more than 100 µM in each case. Also, the TGI in the test on KM20L2 colon was more than 100 µM.
Regarding `O=C(O)COc1ccc2c3c1C(=O)CCC3CO2` (stereo not given), the total growth inhibition concentration (TGI) in the test with DLD-1 colon, in the test on HOP-18 NSCLC, in the test with M19-MEL melanoma, with XF 498 CNS, with DMS 273 small cell lung and with DMS 114 small cell lung was more than 100 µM in each case. In the test on KM20L2 colon, the TGI was more than 100 µM.
As for `CC1=CC=C2C(C)(C)CC[C@@H]3OC(=O)[C@H]1[C@]23C`, the TGI with DLD-1 colon, in the test with HOP-18 NSCLC, with M19-MEL melanoma, in the test with XF 498 CNS, with DMS 273 small cell lung and with DMS 114 small cell lung was more than 100 µM each time. The total growth inhibition concentration (TGI) in the test on KM20L2 colon was more than 100 µM.
Take `CC[C@H]1[C@@H](C)C=C[C@@H](C)N1S(=O)(=O)c1ccc(C)cc1`: the concentration for total growth inhibition (TGI) is more than 100 µM in the test with M19-MEL melanoma; 42.4 µM in the test with XF 498 CNS; more than 100 µM in the test on DMS 273 small cell lung; 34.9 µM in the test with DMS 114 small cell lung; more than 100 µM in the test on KM20L2 colon.
Consider `O=C(Cc1c(C(=O)Nc2ccccc2)sc(C(=O)Nc2ccccc2)c1CC(=O)Nc1ccccc1)Nc1ccccc1`, for which the TGI with DLD-1 colon, in the test with HOP-18 NSCLC, in the test on M19-MEL melanoma, in the test on XF 498 CNS, in the test with DMS 273 small cell lung and with DMS 114 small cell lung was more than 100 µM each time. The molecule further came in with a TGI with KM20L2 colon of more than 100 µM.
On to `COC(=O)C(=O)C(C(=O)C(=O)Nc1ccccc1C(N)=O)c1nc2ccc([N+](=O)[O-])cc2[nH]c1=O` (stereo not given), for which the total growth inhibition concentration (TGI) in the test on DLD-1 colon, in the test on HOP-18 NSCLC, in the test on M19-MEL melanoma, with XF 498 CNS, in the test with DMS 273 small cell lung and in the test with KM20L2 colon was more than 100 µM throughout.
`Cc1ccc(S(=O)OC2c3ccccc3Cc3ccccc32)cc1` (stereo not given): the TGI came to 58.5 µM with DLD-1 colon; 59.4 µM with HOP-18 NSCLC; 40.8 µM with M19-MEL melanoma; 30.3 µM with XF 498 CNS; 33 µM in the test on DMS 273 small cell lung; 34.8 µM in the test with DMS 114 small cell lung. In the test with KM20L2 colon, this molecule showed a concentration for total growth inhibition (TGI) of 47.2 µM.
As to `S=C1NC(c2ccccc2)=NC(Cc2ccccc2)(c2ccccc2)N1c1ccccc1` (stereo not given), the TGI with DLD-1 colon, in the test on HOP-18 NSCLC, with M19-MEL melanoma, in the test with DMS 114 small cell lung and in the test with KM20L2 colon was more than 100 µM each time.
On to `Cc1cc2c(cc1C)[n+](=O)c(C(=O)CC(=O)C(=O)Nc1ccccc1C)c(C)n2[O-]`, for which the total growth inhibition concentration (TGI) in the test with HOP-18 NSCLC, in the test with M19-MEL melanoma, with DMS 273 small cell lung and in the test on KM20L2 colon was more than 100 µM throughout.
As to `CN(CC(=O)O)S(=O)(=O)c1ccc(Cl)cc1`, the TGI in the test with DLD-1 colon, with HOP-18 NSCLC, in the test with M19-MEL melanoma, in the test on XF 498 CNS, in the test on DMS 273 small cell lung and in the test on KM20L2 colon was more than 100 µM throughout.
Take `S=c1sc2sc(=S)sc2s1`: the TGI in the test on DLD-1 colon is more than 100 µM; in the test with HOP-18 NSCLC, more than 100 µM; with M19-MEL melanoma it was 75.6 µM; in the test with DMS 273 small cell lung, more than 100 µM; with KM20L2 colon, more than 100 µM.
